Assay results published in PubChem BioAssay AID1845198 (Molecular Pharmacology Branch, DTP, NCI, 2023).
Where “and” joins values, the source holds several entries; their conditions need not be identical. Equal values may be shown once.

Test system: 425362-245-T-J1 tumor spheroids, viability % test/control
Assay: Anticancer human tumor 425362-245-T-J1 patient-derived melanoma cell line growth inhibition
Details: spheroids with HUVEC and MSC; for viability, T/C: stronger effect = lower value
In short: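 Single agents and combinations were tested on spheroids built from tumor cells plus HUVEC and hMSC, at half-log dilutions starting at or near clinical Cmax, else 10 microM; final DMSO 0.25% (v/v).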
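Also: spheroids exposed to agents for 7 days.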

With `O=C(c1cc(Cc2n[nH]c(=O)c3ccccc23)ccc1F)N1CCN(C(=O)C2CC2)CC1` + CC[C@@]1(O)C(=O)OCc2c1cc1n(c2=O)Cc2cc3c(CN(C)C)c(O)ccc3nc2-1 the IC50 (curve of first compound, second compound 0.003 µM) was 3.17 µM, the IC50 (curve of first compound, second compound 0.00949 µM) was 0.65 µM and the IC50 (curve of first compound, second compound 0.03 µM) was < 0.0949 µM. The IC50 (curve of first compound, second compound 0.0949 µM) was < 0.0949 µM, the IC50 (curve of first compound, second compound 0.3 µM) was < 0.0949 µM and the viability, T/C (second compound 0.003 µM, first compound 0.0949 µM) was 87%. For the same molecule, the viability, T/C (second compound 0.003 µM, first compound 0.3 µM) was 84.8%, the viability, T/C (second compound 0.003 µM, first compound 0.949 µM) was 80.6% and the viability, T/C (second compound 0.003 µM, first compound 3 µM) was 52.4%. It also gave a viability, T/C (second compound 0.003 µM, first compound 9.49 µM) of 7.82%, a viability, T/C (second compound 0.003 µM, first compound 30 µM) of 9.12% and a viability, T/C (second compound 0.00949 µM, first compound 0.0949 µM) of 71.3%. For the same molecule, the viability, T/C (second compound 0.00949 µM, first compound 0.3 µM) was 55%, the viability, T/C (second compound 0.00949 µM, first compound 0.949 µM) was 46.6% and the viability, T/C (second compound 0.00949 µM, first compound 3 µM) was 34.8%. The viability, T/C (second compound 0.00949 µM, first compound 9.49 µM) was 9.52%, the viability, T/C (second compound 0.00949 µM, first compound 30 µM) was 8.51% and the viability, T/C (second compound 0.03 µM, first compound 0.0949 µM) was 7.79%. It also gave a viability, T/C (second compound 0.03 µM, first compound 0.3 µM) of 10.1%, a viability, T/C (second compound 0.03 µM, first compound 0.949 µM) of 8.82% and a viability, T/C (second compound 0.03 µM, first compound 3 µM) of 6.98%. It also gave a viability, T/C (second compound 0.03 µM, first compound 9.49 µM) of 6.48%, a viability, T/C (second compound 0.03 µM, first compound 30 µM) of 5.12% and a viability, T/C (second compound 0.0949 µM, first compound 0.0949 µM) of 4.29%. The viability, T/C (second compound 0.0949 µM, first compound 0.3 µM) was 4.4%, the viability, T/C (second compound 0.0949 µM, first compound 0.949 µM) was 5.46% and the viability, T/C (second compound 0.0949 µM, first compound 3 µM) was 4.39%. It also gave a viability, T/C (second compound 0.0949 µM, first compound 9.49 µM) of 3.36%, a viability, T/C (second compound 0.0949 µM, first compound 30 µM) of 3.93% and a viability, T/C (second compound 0.3 µM, first compound 0.0949 µM) of 2.55%. It also gave a viability, T/C (second compound 0.3 µM, first compound 0.3 µM) of 1.67%, a viability, T/C (second compound 0.3 µM, first compound 0.949 µM) of 1.76% and a viability, T/C (second compound 0.3 µM, first compound 3 µM) of 1.64%. For the same molecule, the viability, T/C (second compound 0.3 µM, first compound 9.49 µM) was 1.57% and the viability, T/C (second compound 0.3 µM, first compound 30 µM) was 1.68%.
`COc1cc(C)[nH]c(=O)c1CN1CCc2c(Cl)cc(C(OC)C3COC3)c(Cl)c2C1=O` (configuration not stated) + Cn1nnc2c(C(N)=O)ncn2c1=O was tested, and the IC50 (curve of first compound, second compound 1 µM) was > 10 µM, the IC50 (curve of first compound, second compound 3.16 µM) was > 10 µM and the IC50 (curve of first compound, second compound 10 µM) was > 10 µM. The IC50 (curve of first compound, second compound 31.6 µM) was > 10 µM, the IC50 (curve of first compound, second compound 100 µM) was > 10 µM and the viability, T/C (second compound 1 µM, first compound 0.0316 µM) was 87%. For the same molecule, the viability, T/C (second compound 1 µM, first compound 0.1 µM) was 96.6%, the viability, T/C (second compound 1 µM, first compound 0.316 µM) was 95.9% and the viability, T/C (second compound 1 µM, first compound 1 µM) was 92.1%. It also gave a viability, T/C (second compound 1 µM, first compound 3.16 µM) of 89.8%, a viability, T/C (second compound 1 µM, first compound 10 µM) of 84.7% and a viability, T/C (second compound 3.16 µM, first compound 0.0316 µM) of 114%. It also gave a viability, T/C (second compound 3.16 µM, first compound 0.1 µM) of 103%, a viability, T/C (second compound 3.16 µM, first compound 0.316 µM) of 110% and a viability, T/C (second compound 3.16 µM, first compound 1 µM) of 105%. For the same molecule, the viability, T/C (second compound 3.16 µM, first compound 3.16 µM) was 101%, the viability, T/C (second compound 3.16 µM, first compound 10 µM) was 92.4% and the viability, T/C (second compound 10 µM, first compound 0.0316 µM) was 104%. It also gave a viability, T/C (second compound 10 µM, first compound 0.1 µM) of 99.9%, a viability, T/C (second compound 10 µM, first compound 0.316 µM) of 114% and a viability, T/C (second compound 10 µM, first compound 1 µM) of 114%. It also gave a viability, T/C (second compound 10 µM, first compound 3.16 µM) of 95.8%, a viability, T/C (second compound 10 µM, first compound 10 µM) of 97.6% and a viability, T/C (second compound 31.6 µM, first compound 0.0316 µM) of 113%. The viability, T/C (second compound 31.6 µM, first compound 0.1 µM) was 111%, the viability, T/C (second compound 31.6 µM, first compound 0.316 µM) was 100% and the viability, T/C (second compound 31.6 µM, first compound 1 µM) was 107%. It also gave a viability, T/C (second compound 31.6 µM, first compound 3.16 µM) of 89%, a viability, T/C (second compound 31.6 µM, first compound 10 µM) of 93.5% and a viability, T/C (second compound 100 µM, first compound 0.0316 µM) of 94.4%. The viability, T/C (second compound 100 µM, first compound 0.1 µM) was 90.4%, the viability, T/C (second compound 100 µM, first compound 0.316 µM) was 90.3% and the viability, T/C (second compound 100 µM, first compound 1 µM) was 89.7%. It also gave a viability, T/C (second compound 100 µM, first compound 3.16 µM) of 88.3% and a viability, T/C (second compound 100 µM, first compound 10 µM) of 71.8%.
`CNCc1ccc(-c2cc(-c3nc(-c4ccc(S(=O)(=O)C(C)C)cc4)cnc3N)on2)cc1` was tested, and the viability, T/C (compound 0.00949 µM) was 93.8% and 103% and 111%, the viability, T/C (compound 0.03 µM) was 103% and 83.1% and 105% and the viability, T/C (compound 0.0949 µM) was 44.3% and 46.4% and 79.6%. For the same molecule, the viability, T/C (compound 0.3 µM) was 8.53% and 6.26% and 5.89%, the viability, T/C (compound 0.949 µM) was 3.67% and 5.06% and 2.41% and the viability, T/C (compound 3 µM) was 0.18% and 0.4% and 0.23%. The IC50 (curve of compound) was 0.084 µM and 0.0795 µM and 0.151 µM.
